Assays:
Type in all cases: in vivo
[1] = system: large crabgrass (Digitaria sanguinalis, DIGSA); assay: Pre-emerge test, greenhouse herbicide activity screening; conditions: pre-emerge, 14 days after application, rating scale 0-100
Procedure, shortened: (§1)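 Visual ratings on a 0-100 scale (0 no damage, 100 all plants dead) were taken at 14 days after treatment. Rates of 15-1000 g ai/ha in acetone, 187 l/ha, were sprayed onto soil one day after planting (pre-emerge) or onto 2-3 leaf plants with 0.25% v/v surfactant (post-emerge).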

[2] = system: green foxtail (Setaria viridis, SETVI); assay: as above; conditions: pre-emerge, 14 days after application, rating scale 0-100
Procedure, shortened: as §1

[3] = system: lambsquarters (Chenopodium album, CHEAL); assay: as above; conditions: pre-emerge, 14 days after application, rating scale 0-100
Procedure, shortened: as §1

[4] = system: ivyleaf morningglory (Ipomoea hederacea, IPOHE); assay: as above; conditions: pre-emerge, 14 days after application, rating scale 0-100
Procedure, shortened: as §1

[5] = system: johnsongrass (Sorghum halepense, SORHA); assay: as above; conditions: pre-emerge, 14 days after application, rating scale 0-100
Procedure, shortened: as §1

[6] = system: sicklepod (Cassia obtusifolia, CASOB); assay: as above; conditions: pre-emerge, 14 days after application, rating scale 0-100
Procedure, shortened: as §1

[7] = system: barnyardgrass (Echinochloa crus-galli, ECHCG); assay: as above; conditions: pre-emerge, 14 days after application, rating scale 0-100
Procedure, shortened: as §1

[8] = system: velvetleaf (Abutilon theophrasti, ABUTH); assay: as above; conditions: pre-emerge, 14 days after application, rating scale 0-100
Procedure, shortened: as §1

[9] = system: large crabgrass (Digitaria sanguinalis, DIGSA); assay: Post-emerge test, greenhouse herbicide activity screening; conditions: post-emerge, 14 days after application, rating scale 0-100
Procedure, shortened: (§2)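 Sandy loam pots; pre-emerge: sown 1 d pre-spray, surface-watered after, then bottom-watered. Post-emerge: sown 8–21 d before, 2–3 leaf stage, + 0.25% v/v NIS, bottom-watered. Acetone, 187 l/ha track spray, 15–1000 g ai/ha. 0–100 injury score, day 14.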

[10] = system: green foxtail (Setaria viridis, SETVI); assay: as above; conditions: post-emerge, 14 days after application, rating scale 0-100
Procedure, shortened: as §2

[11] = system: ivyleaf morningglory (Ipomoea hederacea, IPOHE); assay: as above; conditions: post-emerge, 14 days after application, rating scale 0-100
Procedure, shortened: as §2

[12] = system: sicklepod (Cassia obtusifolia, CASOB); assay: as above; conditions: post-emerge, 14 days after application, rating scale 0-100
Procedure, shortened: as §2

[13] = system: barnyardgrass (Echinochloa crus-galli, ECHCG); assay: as above; conditions: post-emerge, 14 days after application, rating scale 0-100
Procedure, shortened: as §2

[14] = system: redroot pigweed (Amaranthus retroflexus, AMARE); assay: as above; conditions: post-emerge, 14 days after application
Procedure, shortened: as §2

[15] = system: velvetleaf (Abutilon theophrasti, ABUTH); assay: as above; conditions: post-emerge, 14 days after application, rating scale 0-100
Procedure, shortened: as §2

[16] = system: redroot pigweed (Amaranthus retroflexus, AMARE); assay: Pre-emerge test, greenhouse herbicide activity screening; conditions: pre-emerge, 14 days after application, rating scale 0-100
Procedure, shortened: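 Plants grown in 10 cm pots of sandy loam mix received acetone-dissolved compounds through a moving flat-fan nozzle. Doses ranged from 15 to 1000 g ai/ha. Pre-emerge pots were seeded one day earlier, post-emerge pots 8–21 days earlier. Fourteen days on, each pot was graded 0–100 for damage.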

[17] = system: field corn (Zea mays L., var. Dekalb 535, CORN); assay: Pre-emerge test, crop safety; conditions: pre-emerge, 14 days after application, rating scale 0-100
Procedure, shortened: (§3)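 Compounds in acetone were track-sprayed at 15-1000 g ai/ha (187 l/ha) on sandy loam pots: pre-emerge one day after seeding, post-emerge at 2-3 leaf stage with 0.25% v/v non-ionic surfactant. Phytotoxicity was rated 14 days later on a 0 (no damage) to 100 (complete death) scale.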

[18] = system: upland rice (Oryza sp., var. Tebonnet, RICE); assay: Pre-emerge test, crop safety; conditions: pre-emerge, 14 days after application, rating scale 0-100
Procedure, shortened: as §3

[19] = system: field corn (Zea mays L., var. Dekalb 535, CORN); assay: Post-emerge test, crop safety; conditions: post-emerge, 14 days after application, rating scale 0-100
Procedure, shortened: as §1

[20] = system: upland rice (Oryza sp., var. Tebonnet, RICE); assay: Post-emerge test, crop safety; conditions: post-emerge, 14 days after application, rating scale 0-100
Procedure, shortened: as §1

[21] = 63 g ai/ha, rating scale 0-100 (0 no damage, 100 complete death)
[22] = 250 g ai/ha, rating scale 0-100

Compound	phytotoxicity rating DIGSA ([1]; 63 g ai/ha)	phytotoxicity rating DIGSA ([1]; 250 g ai/ha)	phytotoxicity rating SETVI ([2]; 63 g ai/ha)	phytotoxicity rating SETVI ([2]; 250 g ai/ha)	phytotoxicity rating CHEAL ([3]; 63 g ai/ha)	phytotoxicity rating CHEAL ([3]; 250 g ai/ha)	phytotoxicity rating IPOHE ([4]; 63 g ai/ha)	phytotoxicity rating IPOHE ([4]; 250 g ai/ha)	phytotoxicity rating SORHA ([5]; 63 g ai/ha)	phytotoxicity rating SORHA ([5]; 250 g ai/ha)	phytotoxicity rating CASOB ([6]; 63 g ai/ha)	phytotoxicity rating CASOB ([6]; 250 g ai/ha)	phytotoxicity rating ECHCG ([7]; 63 g ai/ha)	phytotoxicity rating ECHCG ([7]; 250 g ai/ha)	phytotoxicity rating ABUTH ([8]; 63 g ai/ha)	phytotoxicity rating ABUTH ([8]; 250 g ai/ha)	Post-emerge Herbicidal Activity DIGSA (phytotoxicity rating) ([9]; 63 g ai/ha)	Post-emerge Herbicidal Activity DIGSA (phytotoxicity rating) ([9]; 250 g ai/ha)	Post-emerge Herbicidal Activity SETVI (phytotoxicity rating) ([10]; 63 g ai/ha)	Post-emerge Herbicidal Activity SETVI (phytotoxicity rating) ([10]; 250 g ai/ha)	other results
CCOC(=O)N(C)C(=O)NNc1c(OC)c(Cl)cc(F)c1-n1c(=O)cc(C(F)(F)F)n(C)c1=O [15-9]	90	100	100	100	100	100	99	100	100	100	90	100	99	100	100	100	0	80	0	80	Post-emerge Herbicidal Activity IPOHE (phytotoxicity rating) ([11]; 63 g ai/ha): 100; Post-emerge Herbicidal Activity IPOHE (phytotoxicity rating) ([11]; 250 g ai/ha): 85; Post-emerge Herbicidal Activity CASOB (phytotoxicity rating) ([12]; 63 g ai/ha): 10; Post-emerge Herbicidal Activity CASOB (phytotoxicity rating) ([12]; 250 g ai/ha): 60; Post-emerge Herbicidal Activity ECHCG (phytotoxicity rating) ([13]; 63 g ai/ha): 0; Post-emerge Herbicidal Activity ECHCG (phytotoxicity rating) ([13]; 250 g ai/ha): 90; Post-emerge Herbicidal Activity AMARE (phytotoxicity rating) [14, 21]: 10; Post-emerge Herbicidal Activity AMARE (phytotoxicity rating) [14, 22]: 95; Post-emerge Herbicidal Activity ABUTH (phytotoxicity rating) ([15]; 63 g ai/ha): 80; Post-emerge Herbicidal Activity ABUTH (phytotoxicity rating) ([15]; 250 g ai/ha): 100; phytotoxicity rating AMARE ([16]; 63 g ai/ha): 100; phytotoxicity rating AMARE ([16]; 250 g ai/ha): 100; phytotoxicity rating CORN ([17]; 63 g ai/ha): 85; phytotoxicity rating CORN ([17]; 250 g ai/ha): 98; phytotoxicity rating RICE ([18]; 63 g ai/ha): 95; phytotoxicity rating RICE ([18]; 250 g ai/ha): 100; Post-emerge Herbicidal Activity CORN (crop damage rating) ([19]; 63 g ai/ha): 30; Post-emerge Herbicidal Activity CORN (crop damage rating) ([19]; 250 g ai/ha): 70; Post-emerge Herbicidal Activity RICE (crop damage rating) ([20]; 63 g ai/ha): 50; Post-emerge Herbicidal Activity RICE (crop damage rating) ([20]; 250 g ai/ha): 90
CCOC(=O)NNc1c(OC)c(Cl)cc(F)c1-n1c(=O)cc(C(F)(F)F)n(C)c1=O [15-6]	100	100	99	100	100	100	100	100	100	100	90	100	99	100	100	100	0	90	30	75	Post-emerge Herbicidal Activity IPOHE (phytotoxicity rating) ([11]; 63 g ai/ha): 50; Post-emerge Herbicidal Activity IPOHE (phytotoxicity rating) ([11]; 250 g ai/ha): 100; Post-emerge Herbicidal Activity CASOB (phytotoxicity rating) ([12]; 63 g ai/ha): 30; Post-emerge Herbicidal Activity CASOB (phytotoxicity rating) ([12]; 250 g ai/ha): 70; Post-emerge Herbicidal Activity ECHCG (phytotoxicity rating) ([13]; 63 g ai/ha): 20; Post-emerge Herbicidal Activity ECHCG (phytotoxicity rating) ([13]; 250 g ai/ha): 95; Post-emerge Herbicidal Activity AMARE (phytotoxicity rating) [14, 21]: 50; Post-emerge Herbicidal Activity AMARE (phytotoxicity rating) [14, 22]: 85; Post-emerge Herbicidal Activity ABUTH (phytotoxicity rating) ([15]; 63 g ai/ha): 100; Post-emerge Herbicidal Activity ABUTH (phytotoxicity rating) ([15]; 250 g ai/ha): 100; phytotoxicity rating AMARE ([16]; 63 g ai/ha): 100; phytotoxicity rating AMARE ([16]; 250 g ai/ha): 100; phytotoxicity rating CORN ([17]; 63 g ai/ha): 95; phytotoxicity rating CORN ([17]; 250 g ai/ha): 100; phytotoxicity rating RICE ([18]; 63 g ai/ha): 98; phytotoxicity rating RICE ([18]; 250 g ai/ha): 100; Post-emerge Herbicidal Activity CORN (crop damage rating) ([19]; 63 g ai/ha): 25; Post-emerge Herbicidal Activity CORN (crop damage rating) ([19]; 250 g ai/ha): 80; Post-emerge Herbicidal Activity RICE (crop damage rating) ([20]; 63 g ai/ha): 60; Post-emerge Herbicidal Activity RICE (crop damage rating) ([20]; 250 g ai/ha): 95
